Assay results: ChEMBL document CHEMBL1154736, “Increasing selectivity of CC chemokine receptor 8 antagonists by engineering nondesolvation related interactions with the intended and off-target binding sites” (J Med Chem, 2009)

Key:
[1] = target: C-C chemokine receptor type 8 (Homo sapiens, UniProt P51685); assay: Antagonist activity at human CCR8; type: functional
[2] = target: T1, Voltage-gated inwardly rectifying potassium channel KCNH2 (Homo sapiens, UniProt Q12809); assay: Inhibition of wild type human ERG expressed in CHOK1 cells by whole-cell plate-based electrophysiology
[3] = Apparent n-Octanol-water partition coefficient, log D at pH 7.4 by HPLC analysis
[4] = target: Voltage-gated inwardly rectifying potassium channel KCNH2 (Homo sapiens, UniProt Q12809, S624A); assay: Inhibition of human recombinant ERG S624A mutant expressed in CHOK1 cells by whole-cell plate-based electrophysiology; conditions: cho-k1
[5] = target: Voltage-gated inwardly rectifying potassium channel KCNH2 (Homo sapiens, UniProt Q12809, S624T); assay: Inhibition of human recombinant ERG S624T mutant expressed in CHOK1 cells by whole-cell plate-based electrophysiology; conditions: cho-k1
[6] = target: Voltage-gated inwardly rectifying potassium channel KCNH2 (Homo sapiens, UniProt Q12809, Y652A); assay: Inhibition of human recombinant ERG Y652A mutant expressed in CHOK1 cells by whole-cell plate-based electrophysiology; conditions: cho-k1
[7] = target: Voltage-gated inwardly rectifying potassium channel KCNH2 (Homo sapiens, UniProt Q12809, Y652F); assay: Inhibition of human recombinant ERG Y652F mutant expressed in CHOK1 cells by whole-cell plate-based electrophysiology; conditions: cho-k1
[8] = target: Voltage-gated inwardly rectifying potassium channel KCNH2 (Homo sapiens, UniProt Q12809, F656W); assay: Inhibition of human recombinant ERG F656W mutant expressed in CHOK1 cells by whole-cell plate-based electrophysiology; conditions: cho-k1
[9] = target: Voltage-gated inwardly rectifying potassium channel KCNH2 (Homo sapiens, UniProt Q12809, F656M); assay: Inhibition of human recombinant ERG F656M mutant expressed in CHOK1 cells by whole-cell plate-based electrophysiology; conditions: cho-k1
[10] = target: T1, Voltage-gated inwardly rectifying potassium channel KCNH2; assay: Displacement of [3H]dofetilide from human recombinant ERG expressed in HEK293 cells by patch clamp method
[11] = target: Voltage-gated inwardly rectifying potassium channel KCNH2 (Homo sapiens, UniProt Q12809, T623S); assay: Inhibition of human recombinant ERG T623S mutant expressed in CHOK1 cells by whole-cell plate-based electrophysiology; conditions: cho-k1
[12] = target: Voltage-gated inwardly rectifying potassium channel KCNH2 (Homo sapiens, UniProt Q12809, F656T); assay: Inhibition of human recombinant ERG F656T mutant expressed in CHOK1 cells by whole-cell plate-based electrophysiology; conditions: cho-k1

C-C chemokine receptor type 8, sequence (P51685 whole entry): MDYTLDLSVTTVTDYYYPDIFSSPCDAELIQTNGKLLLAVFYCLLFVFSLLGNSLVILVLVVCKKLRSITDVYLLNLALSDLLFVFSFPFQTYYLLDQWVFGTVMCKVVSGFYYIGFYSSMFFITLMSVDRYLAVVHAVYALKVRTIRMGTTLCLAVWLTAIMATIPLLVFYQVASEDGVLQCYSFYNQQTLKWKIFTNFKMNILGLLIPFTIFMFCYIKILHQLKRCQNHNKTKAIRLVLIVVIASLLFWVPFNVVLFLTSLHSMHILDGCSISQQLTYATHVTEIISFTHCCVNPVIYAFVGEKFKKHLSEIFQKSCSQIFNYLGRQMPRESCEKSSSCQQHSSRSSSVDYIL

Row | SMILES | IC50 [1] | IC50 [2] | logD [3] | delta pIC50 wt-mutant [4] | delta pIC50 wt-mutant [5] | delta pIC50 wt-mutant [6] | delta pIC50 wt-mutant [7] | delta pIC50 wt-mutant [8] | delta pIC50 wt-mutant [9] | IC50 [10] | delta pIC50 wt-mutant [11] | delta pIC50 wt-mutant [12]
1 | COc1ccccc1Oc1ccccc1CN1CCC2(CC1)CCN(C(=O)c1ccncc1)CC2 | 0.0115 µM | – | – | – | – | – | – | – | – | – | – | –
2 | CC1(C)Cc2cccc(CN3CCC4(CC3)CCN(C(=O)c3ncccc3N)CC4)c2O1 | 0.0224 µM | 4.17 µM | 1.4 | 1.32 | 0.43 | 1.81 | 0.64 | -0.32 | -0.26 | 32.4 µM | 0.41 | 0.77
3 | CC1(C)Cc2c(CN3CCC4(CC3)CCN(C(=O)c3ccc(N)cn3)CC4)cccc2O1 | 0.00813 µM | 16.6 µM | 1.3 | 0.79 | 0.31 | 1.23 | 0.68 | -0.66 | -0.22 | 12.9 µM | 0.49 | 0.2
4 | C=C(C)COc1ccccc1CN1CCC2(CC1)CCN(C(=O)c1ccncc1)CC2 | 0.0708 µM | – | 1.6 | – | – | – | – | – | – | – | – | –
5 | O=C(c1ccncn1)N1CCC2(CCN(Cc3ccccc3Oc3ccccc3)CC2)CC1 | 0.141 µM | – | 2 | – | – | – | – | – | – | – | – | –
6 | CC1(C)CCc2cc(CN3CCC4(CC3)CCN(C(=O)c3ccc(N)cn3)CC4)ccc2O1 | 0.0955 µM | 19.5 µM | 1.1 | 1.09 | -0.28 | 0.83 | 0.47 | -0.35 | -0.66 | 32.4 µM | 0.24 | -0.09
7 | CCCC1(CC)Cc2c(CN3CCC4(CC3)CCN(C(=O)c3ccc(N)cn3)CC4)cccc2O1 (centres undefined) | 0.0024 µM | – | 2.5 | – | – | – | – | – | – | – | – | –
8 | CC(C)COc1ccccc1CN1CCC2(CC1)CCN(C(=O)c1ccncc1)CC2 | 0.107 µM | – | 1.8 | – | – | – | – | – | – | – | – | –
9 | CC(C)COc1ccccc1CN1CCC2(CC1)CCN(C(=O)c1ccncn1)CC2 | 0.141 µM | 4.9 µM | -0.11 | 0.51 | 0.12 | 0.7 | -0.42 | -0.42 | 0.21 | 19.1 µM | 0.22 | 1.65
10 | CC1(C)Cc2c(CN3CCC4(CC3)CCN(C(=O)c3ccnc(N)c3)CC4)cccc2O1 | 0.0224 µM | 28.8 µM | 1.4 | 0.55 | -0.58 | 0.89 | -0.37 | -0.61 | 0.14 | 17 µM | 0.01 | 1.32
11 | CC(C)(C)C1(C)Cc2c(CN3CCC4(CC3)CCN(C(=O)c3ccc(N)cn3)CC4)cccc2O1 (centres undefined) | 0.00282 µM | – | 2.6 | – | – | – | – | – | – | – | – | –
12 | CC1Cc2cccc(CN3CCC4(CC3)CCN(C(=O)c3ccncc3)CC4)c2O1 (centres undefined) | – | – | – | 0.61 | -0.12 | 1.63 | -0.21 | -0.58 | 1.04 | – | 0.24 | 1.41
13 | CC1(C)CCc2cc(CN3CCC4(CC3)CCN(C(=O)c3ccncn3)CC4)ccc2O1 | 1.82 µM | 11.2 µM | 0.9 | 0.74 | -0.39 | 0.82 | 0.11 | -0.14 | -0.3 | – | 0.39 | 0.46
14 | CC1(C)C=Cc2cccc(CN3CCC4(CC3)CCN(C(=O)c3ccnc(N)c3)CC4)c2O1 | 0.00562 µM | – | 1.5 | 0.48 | -0.62 | 0.93 | 0.04 | -0.75 | 0.37 | – | 0.2 | 1.32
15 | CC1(C)Cc2cccc(CN3CCC4(CC3)CCN(C(=O)c3ccc(N)cn3)CC4)c2O1 | 0.00263 µM | 43.7 µM | 1 | 0.82 | -0.05 | 0.83 | 0.35 | -0.99 | -0.31 | 37.2 µM | 0.22 | 0.51
16 | O=C(c1ccncc1)N1CCC2(CCN(Cc3cccc4c3OCC4)CC2)CC1 | 1.48 µM | – | 0.3 | – | – | – | – | – | – | – | – | –
17 | COc1ccccc1Oc1ccccc1CN1CCC2(CC1)CCN(C(=O)c1ccncn1)CC2 | 0.0148 µM | – | 1.2 | – | – | – | – | – | – | – | – | –
18 | COc1ccccc1Oc1cccc(CN2CCC3(CC2)CCN(C(=O)c2ccncn2)CC3)c1 | 0.0049 µM | 1.91 µM | 1.7 | 0.67 | -0.3 | 0.98 | -0.29 | -0.15 | -0.2 | – | 0.44 | 0.58
19 | CC1(C)Oc2c(CN3CCC4(CC3)CCN(C(=O)c3ccc(N)cn3)CC4)cccc2C1(F)F | 0.00263 µM | 30.9 µM | 2.3 | 0.36 | -0.62 | 0.87 | 0.02 | -1.07 | -0.49 | 47.9 µM | 0.01 | -0.17
20 | O=C(c1ccncc1)N1CCC2(CCN(Cc3ccccc3OC(F)(F)C(F)F)CC2)CC1 | 0.525 µM | 5.13 µM | 2.8 | 0.11 | -0.08 | 1 | -0.32 | -0.54 | 0.48 | 17 µM | 0.06 | 1.42
21 | CC1(C)Cc2c(CN3CCC4(CC3)CCN(C(=O)c3ccncc3)CC4)cccc2O1 | 0.0309 µM | 7.08 µM | 1.6 | – | – | – | – | – | – | 30.2 µM | – | –
22 | COc1ccccc1Oc1ccccc1CN1CCC2(CC1)CCN(C(=O)c1ccc[nH]c1=O)CC2 | 0.055 µM | 14.1 µM | 0.9 | 0.54 | 0.24 | 1.19 | 0.35 | -0.18 | 0.22 | 2 µM | 0.51 | 1.92
23 | CC1(C)Oc2cccc(CN3CCC4(CC3)CCN(C(=O)c3ccnc(N)c3)CC4)c2O1 | 0.00661 µM | 16.6 µM | 1.2 | 0.59 | -0.33 | 1.22 | -0.19 | -0.39 | 0.62 | 0.759 µM | -0.06 | 1.37
